Strand notation (5' to 3'): a small letter for the sugar, then the base; units joined by * are phosphorothioate-linked, units joined directly phosphodiester-linked; [ ] holds rarer units or linkages, { } end groups; capitals alone tell only the bases. e = 2'-O-(2-methoxyethyl) (MOE); [5mC] = 5-methylcytosine; d = 2'-deoxy (DNA)
What was measured:
[1] = tested on: human Factor 11 mRNA; assay: Dose-dependent antisense inhibition of human Factor 11 in HepG2 cells, lipofectin 9.375-150 nM (Example 2); assay type: cell-based; conditions: ~16 h
[2] = tested on: Factor 11 protein; assay: Factor 11 protein in monkey plasma by sandwich ELISA (Example 45); assay type: in vivo, cynomolgus monkeys; conditions: for Inhibition of Factor 11 protein relative to the PBS control: plasma ELISA
Method: (§1) Groups, each consisting of two male and three female monkeys, were injected subcutaneously with ISIS 416838, ISIS 416850, ISIS 416858, ISIS 416864, or ISIS 417002 in escalating doses. Antisense oligonucleotide was administered to the monkeys at 5 mg/kg three times per a week for week 1; 5 mg/kg twice per week for weeks 2 and 3; 10 mg/kg three times per week for week 4; 10 mg/kg twice per week for weeks 5 and 6; 25 mg/kg three times per week for week 7; and 25 mg/kg twice per week for weeks 8, 9, 10, 11, and 12. One control group, consisting of two male and three female monkeys, was injected subcutaneously with PBS according to the same dosing regimen. An additional experimental group, consisting of two male and three female monkeys, was injected subcutaneously with ISIS 416850 in a chronic, lower dose regimen. Antisense oligonucleotide was administered to the monkeys at 5 mg/kg three times per week for week 1; 5 mg/kg twice per week for week 2 and 3; 10 mg/kg three times per week for week 4; and 10 mg/kg twice per week for weeks 5 to 12. Body weights were measured weekly. Blood samples were collected 14 days and 5 days before the start of treatment and subsequently once per week for Factor 11 protein activity analysis in plasma, fibrinogen measurement, PT and aPTT measurements, bleeding times, and measurement of various hematologic factors. On day 85, the monkeys were euthanized by exsanguination while under deep anesthesia, and organs harvested for further analysis.
Plasma samples from all monkey groups taken on different days were analyzed by a sandwich-style ELISA assay (Affinity Biologicals Inc.) using an affinity-purified polyclonal anti-Factor 11 antibody as the capture antibody and a peroxidase-conjugated polyclonal anti-Factor 11 antibody as the detecting antibody. Monkey plasma was diluted 1:50 for the assay. Peroxidase activity was expressed by incubation with the substrate o-phenylenediamine. The color produced was quantified using a microplate reader at 490 nm and was considered to be proportional to the concentration of Factor 11 in the samples.
The results are presented in Table 115, expressed as percentage reduction relative to that of the PBS control.

[3] = tested on: fibrinogen; assay: Fibrinogen assay (Example 45); assay type: in vivo, cynomolgus monkeys; conditions: plasma
Method: as §1
Nine parts of fresh monkey plasma was collected into one part of trisodium citrate. The samples were evaluated of fibrinogen content using an ACL 9000 coagulation instrument (Instrumentation Laboratory, Italy). The ISIS oligonucleotide, ISIS 416850, given with the chronic dose regimen is distinguished from the other oligonucleotides with an asterisk (*).

[4] = Tolerability in Sprague-Dawley rats: liver function (Example 35); conditions: plasma, 50 mg/kg s.c. twice per week for 6 weeks
[5] = day 15, escalating dose regimen
[6] = day 22, escalating dose regimen
[7] = day 29, escalating dose regimen
[8] = day 36, escalating dose regimen
[9] = day 43, escalating dose regimen
[10] = day 50, escalating dose regimen
[11] = day 57, escalating dose regimen
[12] = day 64, escalating dose regimen
[13] = day 71, escalating dose regimen
[14] = day 78, escalating dose regimen
[15] = day 85, escalating dose regimen
[16] = day −5, escalating dose regimen
[17] = day −14, escalating dose regimen

For “413482 (antisense GGACGGCATTGGTGCACAGT; 5-10-5 MOE gapmer, further chemistry not given here) [compound 413482]”, the “percent inhibition of Factor 11 at 9.375 nM” value [1] was 26%, the “percent inhibition of Factor 11 at 18.75 nM” value [1] was 39% and the “percent inhibition of Factor 11 at 37.5 nM” value [1] was 59%. The “percent inhibition of Factor 11 at 75 nM” value [1] was 74%, the “percent inhibition of Factor 11 at 150 nM” value [1] was 82% and the IC50 [1] was 28 nM.

For “ISIS 417002: MOE gapmer, nucleobases 1275 to 1318 of SEQ ID NO: 1 (Table 8) (antisense GGTGCACAGTTTCTGGCAGG; MOE gapmer, wing and gap sizes not given here)”, the “Inhibition of Factor 11 protein relative to the PBS control” value ([2]; day 8, escalating dose regimen) was 0%, the “Inhibition of Factor 11 protein relative to the PBS control” value [2, 5] was 4% and the “Inhibition of Factor 11 protein relative to the PBS control” value [2, 6] was 2%. The “Inhibition of Factor 11 protein relative to the PBS control” value [2, 7] was 8%, the “Inhibition of Factor 11 protein relative to the PBS control” value [2, 8] was 8% and the “Inhibition of Factor 11 protein relative to the PBS control” value [2, 9] was 9%. For the same substance, the “Inhibition of Factor 11 protein relative to the PBS control” value [2, 10] was 13%, the “Inhibition of Factor 11 protein relative to the PBS control” value [2, 11] was 24% and the “Inhibition of Factor 11 protein relative to the PBS control” value [2, 12] was 26%. For the same substance, the “Inhibition of Factor 11 protein relative to the PBS control” value [2, 13] was 30%, the “Inhibition of Factor 11 protein relative to the PBS control” value [2, 14] was 22% and the “Inhibition of Factor 11 protein relative to the PBS control” value [2, 15] was 23%. For the same substance, the “Inhibition of Factor 11 protein relative to the PBS control” value [2, 16] was 0%, the “Inhibition of Factor 11 protein relative to the PBS control” value [2, 17] was 0% and the fibrinogen levels ([3]; day 8, escalating dose regimen) was 221 mg/dL. For the same substance, the fibrinogen levels [3, 5] was 195 mg/dL, the fibrinogen levels [3, 6] was 199 mg/dL and the fibrinogen levels [3, 7] was 199 mg/dL. It also gave a fibrinogen levels [3, 8] of 191 mg/dL, a fibrinogen levels [3, 9] of 187 mg/dL and a fibrinogen levels [3, 10] of 236 mg/dL. For the same substance, the fibrinogen levels [3, 11] was 201 mg/dL, the fibrinogen levels [3, 12] was 236 mg/dL and the fibrinogen levels [3, 13] was 228 mg/dL. The fibrinogen levels [3, 14] was 221 mg/dL, the fibrinogen levels [3, 15] was 224 mg/dL and the fibrinogen levels [3, 16] was 222 mg/dL. For the same substance, the fibrinogen levels [3, 17] was 291 mg/dL, the ALT [4] was 44 IU/L and the AST [4] was 11 IU/L. The Albumin [4] was 3 and the Bilirubin [4] was 12 mg/dL.

For “412223 (antisense ACAGTTTCTGGCAGGCCTCG; 5-10-5 MOE gapmer, further chemistry not given here) [compound 412223]”, the “percent inhibition of Factor 11 at 9.375 nM” value [1] was 33%, the “percent inhibition of Factor 11 at 18.75 nM” value [1] was 48% and the “percent inhibition of Factor 11 at 37.5 nM” value [1] was 62%. The “percent inhibition of Factor 11 at 75 nM” value [1] was 76%, the “percent inhibition of Factor 11 at 150 nM” value [1] was 81% and the IC50 [1] was 21 nM.

With “412224 (antisense GCATTGGTGCACAGTTTCTG; 5-10-5 MOE gapmer, further chemistry not given here) [compound 412224]” the “percent inhibition of Factor 11 at 9.375 nM” value [1] was 24%, the “percent inhibition of Factor 11 at 18.75 nM” value [1] was 45% and the “percent inhibition of Factor 11 at 37.5 nM” value [1] was 57%. The “percent inhibition of Factor 11 at 75 nM” value [1] was 70%, the “percent inhibition of Factor 11 at 150 nM” value [1] was 81% and the IC50 [1] was 28 nM.

For “412206 (antisense e[5mC]*e[5mC]*eG*eT*eG*d[5mC]*dA*dT*d[5mC]*dT*dT*dT*d[5mC]*dT*dT*eG*eG*e[5mC]*eA*eT) [compound 412206]”, the “percent inhibition of Factor 11 at 9.375 nM” value [1] was 28%, the “percent inhibition of Factor 11 at 18.75 nM” value [1] was 44% and the “percent inhibition of Factor 11 at 37.5 nM” value [1] was 68%. For the same substance, the “percent inhibition of Factor 11 at 75 nM” value [1] was 80%, the “percent inhibition of Factor 11 at 150 nM” value [1] was 89% and the IC50 [1] was 22 nM.

With “ISIS 416850: MOE gapmer, nucleobases 1275 to 1318 of SEQ ID NO: 1 (Table 8) (antisense TGCACAGTTTCTGGCAGGCC; MOE gapmer, wing and gap sizes not given here)” the “Factor 11 protein levels in plasma” value ([2]; cynomolgus monkeys, escalating dose regimen, ELISA) was “time-dependent decrease in protein levels”, the “Inhibition of Factor 11 protein relative to the PBS control” value ([2]; day 8, chronic, lower dose regimen (*)) was 6% and the “Inhibition of Factor 11 protein relative to the PBS control” value ([2]; day 8, escalating dose regimen) was 8%. The “Inhibition of Factor 11 protein relative to the PBS control” value ([2]; day 15, chronic, lower dose regimen (*)) was 13%, the “Inhibition of Factor 11 protein relative to the PBS control” value [2, 5] was 4% and the “Inhibition of Factor 11 protein relative to the PBS control” value ([2]; day 22, chronic, lower dose regimen (*)) was 12%. For the same substance, the “Inhibition of Factor 11 protein relative to the PBS control” value [2, 6] was 11%, the “Inhibition of Factor 11 protein relative to the PBS control” value ([2]; day 29, chronic, lower dose regimen (*)) was 20% and the “Inhibition of Factor 11 protein relative to the PBS control” value [2, 7] was 15%. For the same substance, the “Inhibition of Factor 11 protein relative to the PBS control” value ([2]; day 36, chronic, lower dose regimen (*)) was 22%, the “Inhibition of Factor 11 protein relative to the PBS control” value [2, 8] was 17% and the “Inhibition of Factor 11 protein relative to the PBS control” value ([2]; day 43, chronic, lower dose regimen (*)) was 24%. The “Inhibition of Factor 11 protein relative to the PBS control” value [2, 9] was 23%, the “Inhibition of Factor 11 protein relative to the PBS control” value ([2]; day 50, chronic, lower dose regimen (*)) was 30% and the “Inhibition of Factor 11 protein relative to the PBS control” value [2, 10] was 42%. The “Inhibition of Factor 11 protein relative to the PBS control” value ([2]; day 57, chronic, lower dose regimen (*)) was 34%, the “Inhibition of Factor 11 protein relative to the PBS control” value [2, 11] was 49% and the “Inhibition of Factor 11 protein relative to the PBS control” value ([2]; day 64, chronic, lower dose regimen (*)) was 37%. For the same substance, the “Inhibition of Factor 11 protein relative to the PBS control” value [2, 12] was 55%, the “Inhibition of Factor 11 protein relative to the PBS control” value ([2]; day 71, chronic, lower dose regimen (*)) was 41% and the “Inhibition of Factor 11 protein relative to the PBS control” value [2, 13] was 57%. The “Inhibition of Factor 11 protein relative to the PBS control” value ([2]; day 78, chronic, lower dose regimen (*)) was 42%, the “Inhibition of Factor 11 protein relative to the PBS control” value [2, 14] was 63% and the “Inhibition of Factor 11 protein relative to the PBS control” value ([2]; day 85, chronic, lower dose regimen (*)) was 34%. For the same substance, the “Inhibition of Factor 11 protein relative to the PBS control” value [2, 15] was 64%, the “Inhibition of Factor 11 protein relative to the PBS control” value ([2]; day −5, chronic, lower dose regimen (*)) was 1% and the “Inhibition of Factor 11 protein relative to the PBS control” value [2, 16] was 0%. The “Inhibition of Factor 11 protein relative to the PBS control” value ([2]; day −14, chronic, lower dose regimen (*)) was 0%, the “Inhibition of Factor 11 protein relative to the PBS control” value [2, 17] was 0% and the fibrinogen levels ([3]; day 8, chronic dose regimen (*)) was 232 mg/dL. It also gave a fibrinogen levels ([3]; day 8, escalating dose regimen) of 281 mg/dL, a fibrinogen levels ([3]; day 15, chronic dose regimen (*)) of 174 mg/dL and a fibrinogen levels [3, 5] of 270 mg/dL. The fibrinogen levels ([3]; day 22, chronic dose regimen (*)) was 192 mg/dL, the fibrinogen levels [3, 6] was 243 mg/dL and the fibrinogen levels ([3]; day 29, chronic dose regimen (*)) was 192 mg/dL. The fibrinogen levels [3, 7] was 234 mg/dL, the fibrinogen levels ([3]; day 36, chronic dose regimen (*)) was 185 mg/dL and the fibrinogen levels [3, 8] was 232 mg/dL. It also gave a fibrinogen levels ([3]; day 43, chronic dose regimen (*)) of 194 mg/dL, a fibrinogen levels [3, 9] of 219 mg/dL and a fibrinogen levels ([3]; day 50, chronic dose regimen (*)) of 204 mg/dL. The fibrinogen levels [3, 10] was 215 mg/dL, the fibrinogen levels [3, 11] was 186 mg/dL and the fibrinogen levels [3, 12] was 190 mg/dL. It also gave a fibrinogen levels [3, 13] of 178 mg/dL, a fibrinogen levels [3, 14] of 177 mg/dL and a fibrinogen levels [3, 15] of 187 mg/dL. The fibrinogen levels ([3]; day −5, chronic dose regimen (*)) was 227 mg/dL, the fibrinogen levels [3, 16] was 261 mg/dL and the fibrinogen levels ([3]; day −14, chronic dose regimen (*)) was 274 mg/dL. It also gave a fibrinogen levels [3, 17] of 310 mg/dL, an ALT [4] of 80 IU/L and an AST [4] of 5 IU/L. It also gave an Albumin [4] of 4 and a Bilirubin [4] of 1 mg/dL.

With “412225 (antisense GCAGCGGACGGCATTGGTGC; 5-10-5 MOE gapmer, further chemistry not given here) [compound 412225]” the “percent inhibition of Factor 11 at 9.375 nM” value [1] was 32%, the “percent inhibition of Factor 11 at 18.75 nM” value [1] was 42% and the “percent inhibition of Factor 11 at 37.5 nM” value [1] was 65%. The “percent inhibition of Factor 11 at 75 nM” value [1] was 78%, the “percent inhibition of Factor 11 at 150 nM” value [1] was 73% and the IC50 [1] was 23 nM.

Source: patent US20230263822A1, “MODULATION OF FACTOR 11 EXPRESSION” (Ionis Pharmaceuticals, Inc., priority 2008, published 2023)
